Assays:
Format in all cases: cell-based, human
[1] = tested on: HA synthase 2 (HAS2); test: Quantitative analysis of HA synthase 2 (HAS2) transcripts in HaCaT cells (qRT-PCR); conditions: 0.1 μM, qRT-PCR normalized to GAPDH, relative to 0 = 1.00
Method: Relative levels of HAS2 expression in HaCaT cells were determined by real-time quantitative reverse transcriptase polymerase chain reaction (qRT-PCR). Total RNAs were isolated from the cultured human cells using TRIzol reagent (Invitrogen, Irvine, Calif., USA). 1 μg of RNA was reverse transcribed, at 37° C. for 60 min in a 20 μl transcription mixture containing dNTP (0.5 mM), oligo-dT (0.1 μg), RNasin (10 units), 1×PCR buffer (20 mM Tris-HCl, pH 8.3; 2.5 mM MgCl2; 50 mM KCl), and 100 units of Moloney murine leukemia virus reverse transcriptase (Invitrogen). The cDNA product was phenol extracted, ethanol precipitated, and resuspended in 20 μl TE (20 mM Tris-Cl, pH 8.0 and 1 mM EDTA). qRT-PCR was performed using the Applied Biosystem 7300 system and pre-developed Taqman Gene Expression Assays (Applied Biosystems, Foster City, Calif., USA). The reaction mixtures (20-μl total volume) contained 2 μl of serially diluted cDNA, 10 μl of Taqman Universal PCR Master Mix (Applied Biosystems), and 1 μl of either human HAS-2 gene (assay ID Hs 00193435_ml, Applied Biosystems), or GAPDH primer mix (assay ID Hs99999905_ml, Applied Biosystems). The reactions were amplified as follows: 50° C. for 2 min and 95° C. for 10 min, followed by 40 cycles of 95° C. for 1 min and 65° C. for 1 min. Two independent triplicate experiments were performed for the selected genes. Relative quantitation was performed using the 7300 software (Applied Biosystems, Foster City, Calif., USA). Expression of HAS-2 was normalized to GAPDH expression in each sample.

[2] = tested on: hyaluronic acid (HA); test: HA measurement in culture medium of HaCaT cells (HA-ELISA); conditions: relative to 0 = 1.00
Method: HA measurement was carried out as described (BBRC, 2004, 316: 348-355). Briefly, HaCaT or HDF cells were seeded and incubated in 24-well plates to confluency. Immediately before experiments, cells were washed twice with serum-free medium to completely remove HA accumulated during cell growth. The cells were then cultured with or without different compounds in 0.5 ml serum-free medium for 48 h. At the indicated time, aliquots of medium were removed, centrifuged at 15000 g for 5 min, and supernatants were analyzed for HA using an enzyme-linked immunosorbent assay (ELISA) kit (Echelon Bioscience, Salt Lake, Utah).
Results shown represent the fold of induction of the astragalosides on hyaluronic acid expression in HaCaT cells. The concentrations of astragalosides used were 0, 1, or 10 μM (unless indicated otherwise) for astragaloside pure compounds; were 0, 0.5, 1, 2.5, 5, 10, 40 μg/mL for the butanol fraction (unless indicated otherwise); and were 0, 1, 10, 40 μg/mL for the water insoluble fraction (unless indicated otherwise). The cells were treated with the indicated compounds for 24 h before harvested for analysis of secreted hyaluronic acid in culture medium using HA-ELISA kit.

[3] = tested on: MMP-2; test: Zymography of MMP-2 in HaCaT cells; conditions: relative to 0 = 1.00
Method: The proteolytic activities of MMPs from HaCaT and HDF cells were measured essentially as described elsewhere (Circ Res, 1999; 85:906-911). The cells were seeded for 24 h and then treated with various concentrations of astragalosides for another 48 h. The conditioned culture medium was then centrifuged, 2-fold concentrated, and saved for assay of collagens and MMPs expressed into the culture medium. The cells were then lysed in lysis buffer (1% Triton, 50 mM Tris-Cl, pH 7.4, 180 mM NaCl, 1 mM EDTA). Protein concentration of the samples was measured using the bicinchoninic acid (BCA) protein assay kit as described. Samples of concentrated conditioned medium and cell lysates were mixed with non-reducing electrophoresis loading buffer and subjected to electrophoresis under non-reducing conditions, which was carried out on a 10% SDS-PAGE co-polymerized with 2 mg/mL gelatin or casein (Sigma, St. Louis, Mo. USA). For zymographic analysis of pro-MMP-2 and activated MMP-2, the total 20 μg of culture medium were used for electrophoresis. Following electrophoresis, renaturation of the proteins was achieved by incubating the gels in 25 g/L Triton X-100 at room temperature for 2×10 min. Subsequently the gels were incubated in 50 mM Tris-HCl, pH 7.5 containing 0.2 M NaCl, 0.02% Brij35 and 10 mM CaCl2 at 37° C. for 18 h. After staining the gels with Coomassie Brilliant Blue R-250 and destaining, zones of proteolytic activities became visible as transparent bands in the stained gel. In order to obtain higher sensitivity, the gels were further destained in a solution of 1% Triton x-100 (1 to 2 h). This procedure increased the signal-to-noise ratio, allowing the visualization of faint gelatinase bands at 92, 125 and greater than 200 kDa. Zymograms were read using a Molecular Dynamics (Sunnyvale, Calif., USA) computing laser densitometer with Image Quant software.
Results shown in Tables 6A and 6B represent the quantitated data from zymography analysis of MMP-2 protein in HaCaT cells and qRT-PCR for MMP-1 in HDF cells. The concentrations used were 0, 0.01. 0.1, 1 μM (if not indicated otherwise) for pure compounds; and were 0, 1, 10, 40 μg/mL for crude extract (if not indicated otherwise). The cells were treated with the indicated compounds for 24 h before harvested for analysis of Pro-MMP-2 or activated MMP-2 in whole cell extract. Fifty micrograms of the cell extract samples were used for electrophoresis.

[4] = tested on: HaCaT cells; test: Proline uptake assay in HaCaT cells; conditions: 0.1 μM; for Uptake rate (proline): 48 h treatment; for Percentage (%) of control proline uptake: control = 100.00
Method: The proline uptake assay was carried out as described (Biochim Biophys Acta. 1104:283-292, 1992). Briefly, HaCaT cells were seeded into a 24-well plate at a density of 3×10^4 cells/well and cultured for 24 h. The cells were then treated in the absence (solvent control) or presence of various concentrations of astragalosides or crude extracts from Astragalus membranaceus for another 48 h. The treated cells were then washed once with PBS and incubated in amino acid free medium (AAFM) for another 30 min. The treated cells were them replaced with fresh AAFM containing 50 μg/ml of ascorbate and total of 0.5 mM of L-proline containing 1 μCi [^3H] Proline (American Radiolabelled Chemicals Inc, ARC, St. Louis, Mo., USA). At designated time interval, the cells were washed with AAFM containing cold proline and then lysed in 200 μL of 2% SDS. Cell lysates were centrifuged at 15000 g for 15 min. Intracellular proline uptaken by the cells was determined by transferring 10 μL of the cell lysate to filter-bottomed UniFilter plates (Perkim-Elmer) and counted. Protein concentration of the samples were measured using the BCA protein assay kit as described above. Proline accumulated in the cells was calculated and normalized to protein concentration and uptake rate was expressed as nmole of L-proline per minute per milligram of cell protein ([…]).

| Compound | HAS-2 in cell [1] | HA in medium (fold of induction) ([2]; 1 μM) | HA in medium (fold of induction) ([2]; 10 μM) | ProMMP-2/MMP2 in medium ([3]; 0.01 μM) | ProMMP-2/MMP2 in medium ([3]; 0.1 μM) | ProMMP-2/MMP2 in medium ([3]; 1 μM) | Uptake rate (proline) [4] [pmol/mg/min] | Percentage (%) of control proline uptake [4] [%] |
| --- | --- | --- | --- | --- | --- | --- | --- | --- |
| CC(=O)O[C@@H]1[C@@H](O)[C@H](O[C@H]2CC[C@]34C[C@]35CC[C@]3(C)[C@@H]([C@@]6(C)CC[C@@H](C(C)(C)O)O6)[C@@H](O)C[C@@]3(C)[C@@H]5C[C@H](O[C@@H]3O[C@H](CO)[C@@H](O)[C@H](O)[C@H]3O)[C@H]4C2(C)C)OC[C@H]1O [isoAS2, isoastragaloside II] | 1.28 | – | – | – | – | – | – | – |
| astragaloside I [AS1] | – | 1.45 | 1.36 | 0.57 | 0.57 | 0.86 | 0.8627 ± 0.0741 | 124.97 |
| CC(C)(O)[C@@H]1CC[C@](C)([C@H]2[C@@H](O)C[C@@]3(C)[C@@H]4C[C@H](O[C@@H]5O[C@H](CO)[C@@H](O)[C@H](O)[C@H]5O)[C@H]5C(C)(C)[C@@H](O[C@@H]6OC[C@@H](O)[C@H](O)[C@H]6O[C@@H]6O[C@H](CO)[C@@H](O)[C@H](O)[C@H]6O)CC[C@@]56C[C@@]46CC[C@]23C)O1 [AS6, astragaloside VI] | – | 1.13 | 1.38 | 0.89 | 0.67 | 0.74 | – | – |
| CC(C)(O)[C@@H]1CC[C@](C)([C@H]2[C@@H](O)C[C@@]3(C)[C@@H]4C[C@H](O)[C@H]5C(C)(C)[C@@H](O[C@@H]6OC[C@@H](O)[C@H](O)[C@H]6O[C@@H]6O[C@H](CO)[C@@H](O)[C@H](O)[C@H]6O)CC[C@@]56C[C@@]46CC[C@]23C)O1 [AS3, astragaloside III] | – | – | – | 0.76 | 0.57 | 0.81 | 0.7213 ± 0.0090 | 104.48 |
| CC(=O)O[C@H]1[C@H](O[C@H]2CC[C@]34C[C@]35CC[C@]3(C)[C@@H]([C@@]6(C)CC[C@@H](C(C)(C)O)O6)[C@@H](O)C[C@@]3(C)[C@@H]5C[C@H](O[C@@H]3O[C@H](CO)[C@@H](O)[C@H](O)[C@H]3O)[C@H]4C2(C)C)OC[C@@H](OC(C)=O)[C@@H]1O [isoAS1, isoastragaloside I] | 1.12 | – | – | – | – | – | – | – |
| CC(C)(O)[C@@H]1CC[C@](C)([C@H]2[C@@H](O)C[C@@]3(C)[C@@H]4C[C@H](O[C@@H]5O[C@H](CO)[C@@H](O)[C@H](O)[C@H]5O)[C@H]5C(C)(C)[C@@H](O[C@@H]6OC[C@@H](O)[C@H](O)[C@H]6O)CC[C@@]56C[C@@]46CC[C@]23C)O1 [AS4, astragaloside IV] | 1.41 | 2.27 | 1.31 | – | – | – | 0.7628 ± 0.1015 | 110.50 |
| CC(=O)O[C@H]1[C@H](O[C@H]2CC[C@]34C[C@]35CC[C@]3(C)[C@@H]([C@@]6(C)CC[C@@H](C(C)(C)O)O6)[C@@H](O)C[C@@]3(C)[C@@H]5C[C@H](O[C@@H]3O[C@H](CO)[C@@H](O)[C@H](O)[C@H]3O)[C@H]4C2(C)C)OC[C@@H](O)[C@@H]1O [AS2, astragaloside II] | 2.73 | 1.98 | 1.31 | 0.89 | 0.89 | 0.67 | 0.9770 ± 0.1119 | 141.52 |
